In US10406169B2, “Methods of monitoring estriol therapy” (The Regents of the University of California, priority 2015, dated 2019):

Legend:
Type in all cases: in vivo, human
[1] = system: relapsing-remitting multiple sclerosis; test: Multiple Sclerosis Functional Composite (PASAT3, 9-hole peg, 25-foot walk); set-up: PASAT3 score, Mean ± SD / PASAT3 score, Median / PASAT3 score change from baseline, Mean ± SD / PASAT3 score change from baseline, Median: scale not given here; 25-foot Walk Time change from baseline, Mean ± SD / 25-foot Walk Time change from baseline, Median: unit not given here
Excerpt: Tertiary end points included gray matter atrophy on MRI, and changes in results from baseline on questionnaires including the Modified Fatigue Impact Scale, Beck Depression Inventory, and MS Quality of Life. Mixed effects negative binomial regression model and linear mixed effects model were used to compare enhancing lesion volume (log-transformed) between treatment groups at all follow-ups, and mixed effects logistic model was used to compare the number of subjects positive for gadolinium enhancing lesions. Linear mixed effects model was carried out to compare the percent change in whole gray matter and cortical gray matter between treatment groups. […] Mixed effects models were used to assess the association among outcomes and estriol levels at all follow-ups and using subjects in both treatment groups. Mixed effects logistic regression model was used to evaluate the association between the number of enhancing lesions and the occurrence of relapse at all follow-up intervals. Linear mixed effects model was carried out to evaluate the association between PASAT change and percent brain volume change, as well as between PASAT change and estriol levels.

[2] = Serum estriol levels in the clinical trial
Excerpt: Safety assessments, including clinical, blood laboratory safety testing and assessments of estriol levels, occurred at months 0, 3, 6, 12, 18, and 24. On study blood tests included complete blood count (CBC) with differential and platelets; chemistry panel including sodium, potassium, creatinine, BUN, glucose, total protein, albumin, bilirubin (total), alkaline phosphatase, AST (SGOT), and ALT (SGPT), and lipid profile (HDL, LDL and triglycerides, cholesterol. Gynecologic exams were done at month 0, 6, 18 and at month 24 exit, with uterine ultrasounds at months 6, 18 and at month 24 exit. Mammograms were done in screening and at month 24 exit. Adverse event analysis was based on the percentage of patients who discontinued the study and the percentage of patients who discontinued the study possibly due to adverse events.
Free estriol levels were also measured and followed a similar pattern of change within individuals as total levels, with absolute free levels a fraction of the magnitude of the absolute total levels as expected.

[3] = system: relapsing-remitting multiple sclerosis; test: Disability and questionnaire outcomes (EDSS, MFIS, BDI, MSQOL); settings: for Proportion of pts with disability (EDSS) progression at 24 months % (95% CI): Kaplan-Meier
Method: EDSS assessments were performed by physicians who were trained either by in-person training or online (www.Neurostatus.net). […] Tertiary end points included gray matter atrophy on MRI, and changes in results from baseline on questionnaires including the Modified Fatigue Impact Scale, Beck Depression Inventory, and MS Quality of Life. Mixed effects negative binomial regression model and linear mixed effects model were used to compare enhancing lesion volume (log-transformed) between treatment groups at all follow-ups, and mixed effects logistic model was used to compare the number of subjects positive for gadolinium enhancing lesions. Linear mixed effects model was carried out to compare the percent change in whole gray matter and cortical gray matter between treatment groups.

[4] = Month 24 (second line, N = 60 / 55)
[5] = Month 24 as printed (first of two lines, N = 70 / 60)
[6] = Patients with baseline score <55, Baseline
[7] = Patients with baseline score <55, Month 12
[8] = Patients with baseline score <55, Month 24
[9] = 24 months, negative = improvement

Serum total estriol level, Mean ± SD ([2]; Month 0): 2.1 ± 2.3 ng/mL
Serum total estriol level, Median ([2]; Month 0): 1.6 ng/mL
Serum total estriol level, Mean ± SD ([2]; Month 3): 2.1 ± 1.6 ng/mL
Serum total estriol level, Median ([2]; Month 3): 1.8 ng/mL
Serum total estriol level, Mean ± SD ([2]; Month 6): 1.9 ± 1.4 ng/mL
Serum total estriol level, Median ([2]; Month 6): 1.8 ng/mL
Serum total estriol level, Mean ± SD ([2]; Month 12): 2.0 ± 1.4 ng/mL
Serum total estriol level, Median ([2]; Month 12): 1.8 ng/mL
Serum total estriol level, Mean ± SD ([2]; Month 18): 1.8 ± 1.2 ng/mL
Serum total estriol level, Median ([2]; Month 18): 1.8 ng/mL
Serum total estriol level, Mean ± SD ([2]; Month 24): 1.8 ± 1.1 ng/mL
Serum total estriol level, Median ([2]; Month 24): 1.6 ng/mL
Substance: glatiramer acetate [Placebo + GA]
PASAT3 score, Mean ± SD ([1]; All patients, Baseline): 52.3 ± 9.1
PASAT3 score, Median ([1]; All patients, Baseline): 56
PASAT3 score % change from baseline, Mean ± SD ([1]; All patients, Month 12): 0.8 ± 9.9%
PASAT3 score % change from baseline, Median ([1]; All patients, Month 12): 0%
PASAT3 score change from baseline, Mean ± SD ([1]; All patients, Month 12): 0.1 ± 4.5
PASAT3 score change from baseline, Median ([1]; All patients, Month 12): 0
PASAT3 score % change from baseline, Mean ± SD ([1]; All patients, Month 24): 2.7 ± 10.3%
PASAT3 score % change from baseline, Median ([1]; All patients, Month 24): 0%
PASAT3 score change from baseline, Mean ± SD ([1]; All patients, Month 24): 1.1 ± 4.3
PASAT3 score change from baseline, Median ([1]; All patients, Month 24): 0
9-Hole Peg Test, Mean ± SD ([1]; Baseline): 19.1 ± 2.7
9-Hole Peg Test, Median ([1]; Baseline): 18.8
25-foot Walk Time, Median ([1]; Baseline): 4.5 s
MSFC Score, Mean ± SD ([1]; Baseline): 0.06 ± 0.79
MSFC Score, Median ([1]; Baseline): 0.24
25-foot Walk Time, Mean ± SD ([1]; Baseline, in s (unit assumed)): 4.9 ± 1.5
9-Hole Peg Test change from baseline, Mean ± SD ([1]; Month 12): −0.1 ± 1.8
9-Hole Peg Test change from baseline, Median ([1]; Month 12): −0.4
MSFC Score change from baseline, Mean ± SD ([1]; Month 12): 0.06 ± 0.38
9-Hole Peg Test change from baseline, Mean ± SD ([1]; Month 24): −0.4 ± 1.5
9-Hole Peg Test change from baseline, Median ([1]; Month 24): −0.5
MSFC Score change from baseline, Mean ± SD ([1]; Month 24): 0.09 ± 0.43
25-foot Walk Time change from baseline, Mean ± SD [1, 4]: 0.1 ± 1.1
25-foot Walk Time change from baseline, Median [1, 4]: 0.1
25-foot Walk Time change from baseline, Mean ± SD [1, 5]: 0.0 ± 0.9
25-foot Walk Time change from baseline, Median [1, 5]: 0.0
PASAT3 score, Mean ± SD [1, 6]: 44.7 ± 9.1
PASAT3 score, Median [1, 6]: 49
PASAT3 score % change from baseline, Mean ± SD [1, 7]: 4.0 ± 14.0%
PASAT3 score % change from baseline, Median [1, 7]: 3.8%
PASAT3 score change from baseline, Mean ± SD [1, 7]: 1.6 ± 6.0
PASAT3 score change from baseline, Median [1, 7]: 1.0
PASAT3 score % change from baseline, Mean ± SD [1, 8]: 6.9 ± 14.7%
PASAT3 score % change from baseline, Median [1, 8]: 9.1%
PASAT3 score change from baseline, Mean ± SD [1, 8]: 3.0 ± 5.9
PASAT3 score change from baseline, Median [1, 8]: 4.0
Serum estriol concentrations (in words) ([2]; Month 3): did not exceed the estriol assay detection limit
Beck Depression Inventory (BDI) score median change from baseline [3, 9]: −3.5
MFIS score median change from baseline [3, 9]: 0
Proportion of pts with disability (EDSS) progression at 24 months % (95% CI) [3]: 15.8 (8.8-27.6) %
Proportion of pts with disability (EDSS) progression at 24 months % (95% CI) ([3]; listed as Placebo plus GA): 15.8%
MSQOL composite scores for Physical outcomes ([3]; change from baseline): no change
EDSS score reduction from baseline to Month 24, Mean ± SD ([3]; in vivo): 0.05 ± 1.13
EDSS score reduction from baseline to Month 24, Median ([3]; in vivo): 0.0
EDSS absolute median change from baseline ([3]; month 24, negative = improvement): 0
